Reference: patent US20100021903A1, “Use of Genetic Determinants in Cardiovascular Risk Assessment” (priority 2006, published 2010)

Assays:
[1] = tested on: hypertensive patients with coronary artery disease; assay: INVEST-GENES cohort: primary and secondary cardiovascular outcomes (death, nonfatal MI, nonfatal stroke), Cox regression; conditions: for Incidence, Nonfatal MI / Incidence, Nonfatal Stroke / Incidence, Primary Outcome / Incidence, All-cause Mortality: crude incidence; for HR (95% CI) Atenolol vs. Verapamil, Nonfatal MI / HR (95% CI) Atenolol vs. Verapamil, Nonfatal Stroke / HR (95% CI) Atenolol vs. Verapamil, Primary Outcome: reduced model; for HR, KCNMB1 codon 110 (Leu110) variant allele on primary outcome, separately by treatment strategy: within patients randomized to the named drug
[2] = tested on: hypertensive patients with coronary artery disease; assay: Blood pressure response to atenolol and number of antihypertensive drugs needed to reach BP control by ADRB1/ADRB2 genotype
[3] = tested on: hypertensive patients with coronary artery disease; assay: Nested case-control study within INVEST-GENES: primary outcome, logistic regression; conditions: for SNP effect in arm (OR, 95% CI), Death / SNP effect in arm (OR, 95% CI), MI / SNP effect in arm (OR, 95% CI), Stroke: within treatment arm; for Total Number of Events: primary outcome; for OR, effect of CACNB2 rs2357928 genotype on the primary outcome, by treatment: within CCB-treated or β-blocker-treated patients; for OR, ALOX5 promoter polymorphism variant carriers, adverse cardiovascular outcomes, By Drug Therapy: within patients on the named drug
Description: The model contained the following baseline covariates used for primary INVEST analyses: age, sex, race/ethnicity, body mass index, smoking, INVEST treatment strategy, previous myocardial infarction, previous stroke, heart failure, diabetes, renal insufficiency, baseline systolic blood pressure, diuretic use, and ACE inhibitor use, plus codon 65 and 110 genotype, and the interaction term between genotype and strategy assignment.
Relationships between single nucleotide polymorphisms (SNP) and haplotypes of arachidonate 5-lipoxygenase pathway genes and cardiovascular events were tested. […] A haplotype of ALOX5AP and SNPs was genotyped in both LTC4S and LTA4H, encoding 5-lipoxygenase activating protein, leukotriene C4 synthase and leukotriene A4 hydrolase respectively. The effects of these variants on the primary outcome using the X^2 test and logistic regression was analyzed.
Pharmacogenetic relationships were tested between a polymorphism of the LTA4H gene which encodes leukotriene A4 hydrolase and cardiovascular events based on drug-treatment. […] The LTA4H SNP rs2660845 were genotyped and analyzed the effect and interaction of this variant with antihypertensive drug treatment on the primary outcome with the X^2 test and logistic regression.
There was minimal linkage disequilibrium in CACNA1C and CACNB2. 8 SNPs in CACNA1C were examined in the case-control group.

[4] = tested on: hypertensive subjects; conditions: Nguyen et al. 2000; cited from earlier work
[5] = primary outcome, 0 GGC (ADRB2 46G-79G-523C) copies
[6] = Patients on Atenolol (N = 2,830)
[7] = Patients on Atenolol, number of patients
[8] = LTA4H rs2660845 G-carriers (n = 466)

## CC(C)NCC(O)COc1ccc(CC(N)=O)cc1 (stereo not drawn) [atenolol]
[1]; 0 copies ADRB2 46G-79G-523C
  Incidence, Nonfatal MI: 3.5 per 1000 patient-years
  Incidence, Nonfatal Stroke: 4.2 per 1000 patient-years
  Incidence, Primary Outcome: 10.8 per 1000 patient-years
  HR (95% CI) Atenolol vs. Verapamil, Nonfatal MI: 0.60 (0.31-1.16)
  HR (95% CI) Atenolol vs. Verapamil, Nonfatal Stroke: 0.85 (0.44-1.62)
  HR (95% CI) Atenolol vs. Verapamil, Primary Outcome: 0.60 (0.41-0.87)
[1]; 1 copy ADRB2 46G-79G-523C
  Incidence, Nonfatal MI: 5.8 per 1000 patient-years
  Incidence, Nonfatal Stroke: 4.8 per 1000 patient-years
  HR (95% CI) Atenolol vs. Verapamil, Nonfatal MI: 1.94 (0.89-4.20)
  HR (95% CI) Atenolol vs. Verapamil, Nonfatal Stroke: 1.01 (0.50-2.05)
  HR (95% CI) Atenolol vs. Verapamil, Primary Outcome: 1.03 (0.69-1.54)
[1]; 2 copies ADRB2 46G-79G-523C
  Incidence, Nonfatal MI: 9.1 per 1000 patient-years
  Incidence, Nonfatal Stroke: 5.1 per 1000 patient-years
  Incidence, Primary Outcome: 22.3 per 1000 patient-years
  HR (95% CI) Atenolol vs. Verapamil, Nonfatal MI: 1.53 (0.51-4.57)
  HR (95% CI) Atenolol vs. Verapamil, Nonfatal Stroke: 0.79 (0.22-2.81)
  HR (95% CI) Atenolol vs. Verapamil, Primary Outcome: 1.35 (0.68-2.67)
[1]; carriers (1 or 2 copies) of ADRB2 46G-79G-523C haplotype
  HR, primary outcome, atenolol vs. verapamil SR: 1.10
[1]; non-carriers of ADRB2 46G-79G-523C haplotype
  HR, primary outcome, atenolol vs. verapamil SR: 0.59
[1]; [5]
  Events/1000 Patient-Years: 10.6 Events/1000 Patient-Years
[1]; primary outcome, 1 GGC copy
  Events/1000 Patient-Years: 15.1 Events/1000 Patient-Years
[1]; primary outcome, 2 GGC copies
  Events/1000 Patient-Years: 23.5 Events/1000 Patient-Years
[1]; primary outcome, All Patients
  Events/1000 Patient-Years: 13.6 Events/1000 Patient-Years
[1]
  HR, KCNMB1 codon 110 (Leu110) variant allele on primary outcome, separately by treatment strategy: 0.84
[2]; 1 copy GEC, 6 weeks
  covariate-adjusted systolic blood pressure reduction: −7.9 mmHg
[2]; 2 copies GEC, 6 weeks
  covariate-adjusted systolic blood pressure reduction: −6.7 mmHg
[2]; 619 blood pressure response study patients
  patients who achieved sustained blood pressure control: 79.8%
[2]; 619 patients whose BP change could be attributed to atenolol, mean±SD
  mean systolic blood pressure after 6 weeks of treatment: 139.7±18.3 mmHg
[2]; 619 patients, 6 weeks
  mean reduction in diastolic blood pressure: −6.2±10.3 mmHg
  mean reduction in systolic blood pressure: −11.1±19.5 mmHg
[2]; 619 patients, mean±SD
  mean diastolic blood pressure after 6 weeks of treatment: 80.4±9.9 mmHg
[2]; 2,772 patients with complete genotype data, <140/90 mmHg
  patients who achieved sustained blood pressure control: 75.0%
[2]; ADRB2 C523A AA
  Covariate-Adjusted Decline in blood pressure, Diastolic: −7.4 mmHg
  Covariate-Adjusted Decline in blood pressure, Systolic: −15.2 mmHg
[2]; ADRB2 C523A CA
  Covariate-Adjusted Decline in blood pressure, Diastolic: −4.5 mmHg
  Covariate-Adjusted Decline in blood pressure, Systolic: −9.9 mmHg
[2]; ADRB2 C523A CC
  Covariate-Adjusted Decline in blood pressure, Diastolic: −5.1 mmHg
  Covariate-Adjusted Decline in blood pressure, Systolic: −8.2 mmHg
[2]; ADRB2 Gln27Glu GlnGln
  Covariate-Adjusted Decline in blood pressure, Diastolic: −5.9 mmHg
  Covariate-Adjusted Decline in blood pressure, Systolic: −11.2 mmHg
[2]; ADRB2 Gln27Glu GlnGlu
  Covariate-Adjusted Decline in blood pressure, Diastolic: −4.8 mmHg
  Covariate-Adjusted Decline in blood pressure, Systolic: −8.8 mmHg
[2]; ADRB2 Gln27Glu GluGlu
  Covariate-Adjusted Decline in blood pressure, Diastolic: −3.4 mmHg
  Covariate-Adjusted Decline in blood pressure, Systolic: −6.0 mmHg
[2]; ADRB2 Gly16Arg ArgArg
  Covariate-Adjusted Decline in blood pressure, Diastolic: −4.9 mmHg
  Covariate-Adjusted Decline in blood pressure, Systolic: −8.0 mmHg
[2]; ADRB2 Gly16Arg GlyArg
  Covariate-Adjusted Decline in blood pressure, Diastolic: −5.9 mmHg
  Covariate-Adjusted Decline in blood pressure, Systolic: −10.9 mmHg
[2]; ADRB2 Gly16Arg GlyGly
  Covariate-Adjusted Decline in blood pressure, Diastolic: −4.2 mmHg
  Covariate-Adjusted Decline in blood pressure, Systolic: −9.0 mmHg
[2]; [6]
  DBP at 12 months, mean (SD): 78.3 mmHg
  DBP at 24 months, mean (SD): 77.7 mmHg
  SBP at 12 months, mean (SD): 134.0 mmHg
  SBP at 24 months, mean (SD): 132.3 mmHg
[2]; Patients on Atenolol (N = 2,830), atenolol-based strategy, SBP < 140 and DBP < 90 mmHg
  Percent of visits with blood pressure in control, mean (SD): 59.4
[2]; [7]
  BP in control at 12 months, No.: 1725
  BP in control at 24 months, No.: 1695
[2]; Patients on Atenolol, percentage of patients at risk at 12 months
  BP in control at 12 months, (%): (66.0) %
[2]; Patients on Atenolol, percentage of patients at risk at 24 months
  BP in control at 24 months, (%): (69.5) %
[2]; p values >0.2
  Association of ADRB1 haplotypes with blood pressure response to atenolol: not significantly associated
[3]; CACNA1C rs1051375
  RR: BB vs CCB by genotype, Death: 0.50
  RR: BB vs CCB by genotype, MI: 0.39
  RR: BB vs CCB by genotype, Stroke: 0.38
  SNP effect in arm (OR, 95% CI), Death: 0.64 (0.37-1.12)
  SNP effect in arm (OR, 95% CI), MI: 0.38 (0.22-0.68)
[3]; CACNA1C rs10848683
  SNP effect in arm (OR, 95% CI), Stroke: 0.706 (0.375, 1.329)
[3]; All subjects (n = 935)
  Total Number of Events: 113
[3]; LTA4H AA (n = 469)
  Total Number of Events: 41
[3]; [8]
  Total Number of Events: 63
[3]
  OR, effect of CACNB2 rs2357928 genotype on the primary outcome, by treatment: 0.50
  OR, ALOX5 promoter polymorphism variant carriers, adverse cardiovascular outcomes, By Drug Therapy: 1.577

## NS(=O)(=O)c1cc2c(cc1Cl)NCNS2(=O)=O [diuretics, hydrochlorothiazide]
[1]; adjusted Cox PH model, primary outcome
  HR, interaction between ADD1 carrier status and diuretics: 1.02
[1]; regardless of ADD1 variant carrier status, Kaplan Meier
  Time to primary outcome event, users vs non-users of diuretics: not different

## COc1ccc(CCN(C)CCCC(C#N)(c2ccc(OC)c(OC)c2)C(C)C)cc1OC (stereo not drawn) [verapamil SR, verapamil]
[1]; 0 copies ADRB2 46G-79G-523C
  Incidence, All-cause Mortality: 7.3 per 1000 patient-years
  Incidence, Nonfatal MI: 5.9 per 1000 patient-years
  Incidence, Nonfatal Stroke: 5.1 per 1000 patient-years
  Incidence, Primary Outcome: 18.3 per 1000 patient-years
[1]; 1 copy ADRB2 46G-79G-523C
  Incidence, All-cause Mortality: 7.0 per 1000 patient-years
  Incidence, Nonfatal MI: 2.9 per 1000 patient-years
  Incidence, Nonfatal Stroke: 4.7 per 1000 patient-years
  Incidence, Primary Outcome: 14.5 per 1000 patient-years
[1]; 2 copies ADRB2 46G-79G-523C
  Incidence, All-cause Mortality: 4.2 per 1000 patient-years
  Incidence, Nonfatal MI: 6.3 per 1000 patient-years
  Incidence, Nonfatal Stroke: 6.3 per 1000 patient-years
  Incidence, Primary Outcome: 17.0 per 1000 patient-years
[1]; Example 4
  Modification of the adverse effect of ADRB2 46G-79C-523C haplotype on primary outcome: Neither atenolol nor verapamil SR modified the adverse effect of this haplotype
[1]; patients treated with verapamil vs atenolol, FIG. 23
  Systolic and diastolic blood pressure control: did not differ
[1]; [5]
  Events/1000 Patient-Years: 18.0 Events/1000 Patient-Years
[1]; primary outcome, 1 GGC copy
  Events/1000 Patient-Years: 14.4 Events/1000 Patient-Years
[1]; primary outcome, 2 GGC copies
  Events/1000 Patient-Years: 17.1 Events/1000 Patient-Years
[1]; primary outcome, All Patients
  Events/1000 Patient-Years: 16.4 Events/1000 Patient-Years
[1]
  HR, KCNMB1 codon 110 (Leu110) variant allele on primary outcome, separately by treatment strategy: 0.55
[1]; within patients treated with the named drug
  HRadj, ADRB1 49S-389R haplotype on mortality, by treatment: 8.00
[4]
  systolic blood pressure response, average decrease: 12 mmHg
[3]; All subjects (n = 935)
  Total Number of Events: 137
[3]; LTA4H AA (n = 469)
  Total Number of Events: 68
[3]; [8]
  Total Number of Events: 60
[3]
  OR, ALOX5 promoter polymorphism variant carriers, adverse cardiovascular outcomes, By Drug Therapy: 1.964

## verapamil [verapamil SR]
[3]; CACNA1C rs1051375
  SNP effect in arm (OR, 95% CI), Death: 1.28 (0.82, 2.0)
  SNP effect in arm (OR, 95% CI), MI: 0.97 (0.61-1.53)
  SNP effect in arm (OR, 95% CI), Stroke: 1.83 (1.13-2.97)
[3]; CACNA1C rs10848683
  SNP effect in arm (OR, 95% CI), Death: 0.659 (0.365, 1.192)
  SNP effect in arm (OR, 95% CI), MI: 0.733 (0.415, 1.294)
  SNP effect in arm (OR, 95% CI), Stroke: 1.340 (0.767, 2.341)
[3]
  OR, effect of CACNB2 rs2357928 genotype on the primary outcome, by treatment: 1.00
